Reference: ChEMBL document CHEMBL4219265, “Piperlongumine derivative, CG-06, inhibits STAT3 activity by direct binding to STAT3 and regulating the reactive oxygen species in DU145 prostate carcinoma cells” (Bioorg Med Chem Lett, 2018)

Tests used:
DU-145 [1] = test: Induction of apoptosis in human DU145 cells at 5 uM after 24 hrs by flow cytometry (reference value: 0.61%); format: functional
[2] = target: T1, Signal transducer and activator of transcription 3 (Homo sapiens, UniProt P40763); test: Inhibition of STAT3-induced ERK1/2 phosphorylation in human DU145 cells assessed as ratio of phosphorylated ERK1/2 protein level to GAPDH protein level at 5 uM after 0.5 hrs by Western blot analysis (reference value: 1); format: cell-based
T1 sequence (P40763 whole entry): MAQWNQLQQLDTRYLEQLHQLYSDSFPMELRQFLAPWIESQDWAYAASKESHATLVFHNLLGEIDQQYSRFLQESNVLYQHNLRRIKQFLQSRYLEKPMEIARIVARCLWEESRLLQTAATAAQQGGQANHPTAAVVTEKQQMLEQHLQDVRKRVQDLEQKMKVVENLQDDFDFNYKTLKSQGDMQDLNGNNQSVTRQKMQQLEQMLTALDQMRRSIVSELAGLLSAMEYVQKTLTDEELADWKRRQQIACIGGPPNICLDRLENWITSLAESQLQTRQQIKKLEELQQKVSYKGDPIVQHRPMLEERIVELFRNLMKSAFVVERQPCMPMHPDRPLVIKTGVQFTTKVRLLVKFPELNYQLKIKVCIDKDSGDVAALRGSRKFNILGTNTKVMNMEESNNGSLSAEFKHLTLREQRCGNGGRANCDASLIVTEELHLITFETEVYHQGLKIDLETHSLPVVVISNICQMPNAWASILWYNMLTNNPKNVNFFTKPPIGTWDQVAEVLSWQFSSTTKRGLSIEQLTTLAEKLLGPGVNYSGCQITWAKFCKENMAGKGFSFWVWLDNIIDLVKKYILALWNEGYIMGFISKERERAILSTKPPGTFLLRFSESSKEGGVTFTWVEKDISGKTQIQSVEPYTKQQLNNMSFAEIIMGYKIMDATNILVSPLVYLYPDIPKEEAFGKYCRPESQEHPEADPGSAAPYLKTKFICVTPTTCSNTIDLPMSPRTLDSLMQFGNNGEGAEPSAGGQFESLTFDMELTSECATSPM

DU-145 [3] = test: Effect on total ERK1/2 protein level in human DU145 cells assessed as ratio of ERK1/2 protein level to GAPDH protein level at 5 uM after 1 hr by Western blot analysis (reference value: 1); format: ADME, cell-based; conditions: du-145, 1 h
DU-145 [4] = test: Effect on total STAT3 protein level in human DU145 cells assessed as ratio of STAT3 protein level to GAPDH protein level at 5 uM after 0.5 hrs by Western blot analysis (reference value: 1); format: ADME, cell-based; conditions: du-145, 0.5 h
DU-145 [5] = test: Cell cycle arrest in human DU145 cells assessed as accumulation at S phase at 5 uM after 12 hrs by flow cytometry (reference value: 6.6%); format: functional
PC-3 = test: Growth inhibition of human PC3 cells after 48 hrs by WST-1 assay; format: functional; conditions: PC-3, 48 h
[6] = target: T1, Signal transducer and activator of transcription 3; test: Binding affinity to STAT3 in human DU145 cell lysates assessed as reduction in pronase-induced STAT3 digestion by measuring ratio of STAT3 protein level to GAPDH protein level at 50 uM incubated for 1 hr followed by 0.005% pronase addition for 10 mins by Western blot analysis (reference value: 0.9)
[7] = target: T1, Signal transducer and activator of transcription 3; test: Binding affinity to STAT3 in human DU145 cell lysates assessed as reduction in pronase-induced STAT3 digestion by measuring ratio of STAT3 protein level to GAPDH protein level at 1 uM incubated for 1 hr in absence of pronase by Western blot analysis (reference value: 1)
LNCaP [8] = test: Effect on total STAT3 protein level in human LNCAP cells assessed as ratio of STAT3 protein level to GAPDH protein level at 5 uM after 12 hrs by Western blot analysis (reference value: 1); format: ADME, cell-based
[9] = target: T1, Signal transducer and activator of transcription 3; test: Binding affinity to STAT3 in human DU145 cell lysates assessed as reduction in pronase-induced STAT3 digestion by measuring ratio of STAT3 protein level to GAPDH protein level at 100 uM incubated for 1 hr followed by 0.05% pronase addition for 10 mins by Western blot analysis (reference value: 1)
[10] = target: T1, Signal transducer and activator of transcription 3; test: Inhibition of STAT3 in human DU145 cells assessed as ratio of Bcl-xl protein level to tubulin protein level at 5 uM after 48 hrs by Western blot analysis (reference value: 1); format: cell-based
DU-145 [11] = test: Induction of apoptosis in human DU145 cells at 5 uM after 12 hrs by flow cytometry (reference value: 0.61%); format: functional
DU-145 [12] = test: Cell cycle arrest in human DU145 cells assessed as accumulation at G0/G1 phase at 5 uM after 24 hrs by flow cytometry (reference value: 24.07%); format: functional
[13] = target: T1, Signal transducer and activator of transcription 3; test: Stabilization of STAT3 in human DU145 cell lysates by measuring ratio of STAT3 protein level to GAPDH protein level at 50 uM incubated for 1 hr in absence of pronase by Western blot analysis (reference value: 1)
[14] = target: T1, Signal transducer and activator of transcription 3; test: Inhibition of STAT3 in human DU145 cells assessed as ratio of cyclin A protein level to tubulin protein level at 5 uM after 48 hrs by Western blot analysis (reference value: 1); format: cell-based
[15] = target: T1, Signal transducer and activator of transcription 3; test: Inhibition of STAT3 in human DU145 cells assessed as ratio of survivin protein level to tubulin protein level at 5 uM after 48 hrs by Western blot analysis (reference value: 1); format: cell-based
DU-145 [16] = test: Induction of apoptosis in human DU145 cells at 5 uM after 48 hrs by flow cytometry (reference value: 0.61%); format: functional
[17] = target: T1, Signal transducer and activator of transcription 3; test: Binding affinity to STAT3 in human DU145 cell lysates assessed as reduction in pronase-induced STAT3 digestion by measuring ratio of STAT3 protein level to GAPDH protein level at 50 uM incubated for 1 hr followed by 0.01% pronase addition for 10 mins by Western blot analysis (reference value: 0.7)
[18] = target: T1, Signal transducer and activator of transcription 3; test: Inhibition of IL-6-mediated STAT3 phosphorylation in human LNCAP cells assessed as ratio of phosphorylated STAT3 protein level to GAPDH protein level at 5 uM preincubated for 12 hrs followed by IL-6 stimulation for 30 mins by Western blot analysis (reference value: 7.5); format: cell-based
[19] = target: T1, Signal transducer and activator of transcription 3; test: Inhibition of STAT3-induced ERK1/2 phosphorylation in human DU145 cells assessed as ratio of phosphorylated ERK1/2 protein level to GAPDH protein level at 5 uM after 12 hrs by Western blot analysis (reference value: 1); format: cell-based
[20] = target: T1, Signal transducer and activator of transcription 3; test: Inhibition of STAT3 phosphorylation at Tyr705 residues in human DU145 cells assessed as ratio of phosphorylated STAT3 protein level to GAPDH protein level at 1 uM after 24 hrs by Western blot analysis (reference value: 1); format: cell-based
[21] = target: T1, Signal transducer and activator of transcription 3; test: Binding affinity to STAT3 in human DU145 cell lysates assessed as reduction in pronase-induced STAT3 digestion by measuring ratio of STAT3 protein level to GAPDH protein level at 10 uM incubated for 1 hr followed by 0.05% pronase addition for 10 mins by Western blot analysis (reference value: 1)
DU-145 [22] = test: Effect on total STAT3 protein level in human DU145 cells assessed as ratio of STAT3 protein level to GAPDH protein level at 5 uM after 24 hrs by Western blot analysis (reference value: 1); format: ADME, cell-based; conditions: du-145, 24 h
DU-145 [23] = test: Effect on total STAT3 protein level in human DU145 cells assessed as ratio of STAT3 protein level to GAPDH protein level at 5 uM after 1 hr by Western blot analysis (reference value: 1); format: ADME, cell-based; conditions: du-145, 1 h
DU-145 [24] = test: Effect on total STAT3 protein level in human DU145 cells assessed as ratio of STAT3 protein level to GAPDH protein level at 0.1 uM after 24 hrs by Western blot analysis (reference value: 1); format: ADME, cell-based; conditions: du-145, 24 h
[25] = target: T1, Signal transducer and activator of transcription 3; test: Binding affinity to STAT3 in human DU145 cell lysates assessed as reduction in pronase-induced STAT3 digestion by measuring ratio of STAT3 protein level to GAPDH protein level at 50 uM incubated for 1 hr followed by 0.05% pronase addition for 10 mins by Western blot analysis (reference value: 1)
LNCaP [26] = test: Effect on total STAT3 protein level in IL-6 stimulated human LNCAP cells assessed as ratio of STAT3 protein level to GAPDH protein level at 5 uM preincubated for 12 hrs followed by IL-6 stimulation for 30 mins by Western blot analysis (reference value: 1.3); format: ADME, cell-based; conditions: 0.5 h
LNCaP [27] = test: Growth inhibition of human LNCAP cells after 48 hrs by WST-1 assay; format: functional
DU-145 [28] = test: Effect on total STAT3 protein level in human DU145 cells assessed as ratio of STAT3 protein level to GAPDH protein level at 1 uM after 24 hrs by Western blot analysis (reference value: 1); format: ADME, cell-based; conditions: du-145, 24 h

Which results are given for `C=C(C)C(=O)N(Cc1ccc(Br)cc1)C(=O)/C=C/c1cc(OC)c(OC)c(OC)c1`?
Activity (DU-145 [1]): 0.72%; Ratio [2]: 1.6; Ratio (DU-145 [3]): 1.1; Ratio (DU-145 [4]): 1; Activity (DU-145 [5]): 8.76%; GI50 (PC-3): > 10 µM; Ratio [6]: 0.8; Ratio [7]: 1; Ratio (LNCaP [8]): 1.2; Ratio [9]: 2.3; Ratio [10]: 1; Activity (DU-145 [11]): 0.65%; Activity (DU-145 [12]): 34.79%; Ratio [13]: 1; Ratio [14]: 0.6; Ratio [15]: 0.7; Activity (DU-145 [16]): 7.61%; Ratio [17]: 0.6; Ratio [18]: 1.6; Ratio [19]: 2.3; Ratio [20]: 0.6; Ratio [21]: 2.1; Ratio (DU-145 [22]): 0.7; Ratio (DU-145 [23]): 1; Ratio (DU-145 [24]): 1.1; Ratio [25]: 2.2; Ratio (LNCaP [26]): 1.1; GI50 (LNCaP [27]): 7.7 µM; Ratio (DU-145 [28]): 1.1
